Data: US20080255244A1, “CaM Kinase II Inhibitor Improves Retinoic Acid Therapy and Inhibits the Proliferation of Myeloid Leukemia Cells” (Fred Hutchinson Cancer Research Center, priority 2007, published 2008)

Assays:
Type in all cases: cell-based, human
[1] = tested on: activated CaMKIIγ in U937 cells; assay: Western blot of CaMKIIγ autophosphorylation in U937 cells
Procedure: (§1) FIG. 9. Terminal differentiation/apoptosis of myeloid leukemia cells is associated with decreased CaMKIIγ activation. (A) Lysates from the HL60, NB4 and U937 myeloid cell lines treated with ATRA (1 μM) for the indicated period of time were subjected to Western blots. (B) Lysates from the indicated myeloid cell lines treated for five days with the indicated concentration of ATRA were subjected to Western blots. (C) Lysates from HL60 cells treated with TPA (0.1 μM) for the indicated time were subjected to Western blots. (D) Lysates from NB4 cells treated with arsenic trioxide (1 uM) for the indicated time were subjected to Western blots.
(§2) Antibodies and Western blots. Protein extracts, immunoprecipitations and Western blots were performed as previously detailed (Si J, Collins S J. IL-3-induced enhancement of retinoic acid receptor activity is mediated through Stat5, which physically associates with retinoic acid receptors in an IL-3-dependent manner. Blood 100: 4401-9 (2002)). Antibodies against CaMKI, CaMKIIγ, CaMKIV, c-myc, Stat3, Stat5, calmodulin, as well as the phosphospecific CaMKII (T286, 287) and phosphospecific CaMKI (T177) antibodies were from Santa Cruz Biotechnology. […]

[2] = tested on: activated CaMKIIγ in KCL22 cells; assay: Western blot of CaMKIIγ autophosphorylation in KCL22 cells; settings: five days ATRA
Procedure: as §1, §2

[3] = tested on: activated CaMKIIγ in HL60R cells; assay: Western blot of CaMKIIγ autophosphorylation in HL60R cells; settings: five days ATRA
Procedure: as §1, §2

[4] = tested on: HL60R cells (mutated RARα); assay: Differentiation of HL60R cells; settings: HL60R harbor a mutated RARα
Excerpt: Pharmacological CaMK inhibitors trigger myeloid leukemia cell differentiation. Particularly compelling evidence for the physiological importance of the CaMKII—mediated regulation of RAR activity is our experimental observation that KN-62, a pharmacological inhibitor of the CaMKs, enhances both RAR transcriptional activity (FIG. 1B) and the differentiation of certain myeloid leukemia cell lines (FIG. 7). Acute myelogenous leukemia (AML) is a heterogenous disease, and successful therapy with RA has been generally confined to those leukemias harboring RARα chromosome translocations.

SMILES	total CaMKIIγ level [1]	activated CaMKIIγ level ([1]; ATRA 1 μM)	activated CaMKIIγ level [2]	activated CaMKIIγ level [3]	KN62-mediated differentiation of HL60R [4]
CC1=C(/C=C/C(C)=C/C=C/C(C)=C/C(=O)O)C(C)(C)CCC1 [ATRA, All-trans retinoic acid]	essentially unchanged	marked decrease	did not exhibit any decrease	not observed	
CN([C@@H](Cc1ccc(OS(=O)(=O)c2cccc3cnccc23)cc1)C(=O)N1CCN(c2ccccc2)CC1)S(=O)(=O)c1cccc2cnccc12 [KN-62]					do not observe any
